Where two headings read alike, the source gives them in different places. Where a SMILES comes first, the peptide text is derived from it. Side-chain parts run from the residue outwards. [ ]: non-standard residue; d: D form. The star is where a group is joined. ξ: configuration not given here. C18 diacid = O=C(O)CCCCCCCCCCCCCCCCC(=O)*; NMeY = CN[C@@H](Cc1ccc(O)cc1)C(=O)O; Palmitoyl = CCCCCCCCCCCCCCCC(=O)*; αMeF = C[C@](N)(Cc1ccccc1)C(=O)O; ξIva = CCC(C)(N)C(=O)O; Aib = CC(C)(N)C(=O)O
Assays:
[1] = Solubility in 0.1 M phosphate buffer at pH 7; format: physicochemical; conditions: 0.1 M phosphate buffer at pH 7, 10 mg/mL final peptide concentration, shaking 2 hours at room temperature, peptides as TFA-salts, measured sample pH 6.5-7.0
hGIPR = biological target: T1, hGIPR (Homo sapiens, UniProt P48546); assay: hGIPR CreLuc assay in 0.5% and 100% plasma (CHO CRE-luciferase reporter cells); format: cell-based
T1 construct: expressed in transfected cells; host or cells: CHO CRE-luciferase reporter cells
T1 sequence (P48546 22-466): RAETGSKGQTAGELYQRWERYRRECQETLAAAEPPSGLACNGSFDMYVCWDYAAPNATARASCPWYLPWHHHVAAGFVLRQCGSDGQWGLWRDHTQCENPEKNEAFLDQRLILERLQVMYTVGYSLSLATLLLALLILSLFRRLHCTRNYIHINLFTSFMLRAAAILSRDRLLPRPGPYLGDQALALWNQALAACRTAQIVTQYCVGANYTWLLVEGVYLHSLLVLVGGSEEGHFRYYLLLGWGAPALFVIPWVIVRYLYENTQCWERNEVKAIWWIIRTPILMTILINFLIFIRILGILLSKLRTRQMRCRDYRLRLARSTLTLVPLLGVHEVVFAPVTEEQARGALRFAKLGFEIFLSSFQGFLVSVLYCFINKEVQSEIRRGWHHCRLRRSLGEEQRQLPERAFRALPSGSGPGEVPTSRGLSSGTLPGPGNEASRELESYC
Text: CHO and HEK-293 recombinant cell lines express a luciferase reporter gene under control of the CAMP responsive element (CRE). As a second recombinant protein the GLP-1 and NPY2 receptors were expressed in the reporter gene HEK cells, and the GIP receptor was expressed in the reporter gene CHO cells, respectively. Stimulation of these recombinant cells with an agonist leads to an increase of intracellular CAMP levels. In the presence of CAMP, the transcription factor CRE binding protein (CREB) binds to the CRE and to the CREB binding protein (CBP), which leads to transcription of the luciferase reporter gene. Peptides upon serial-dilution in 100% DMSO were transferred into 384-well assay plates with 5 μl pre-dispensed assay buffer (1×HBSS, 20 mM HEPES, pH7.4 supplemented with 0.5% human plasma) using acoustic dispensing on a Labcyte ECHO. Cryo-preserved transgenic reporter gene cells were thawed in assay buffer. 20 μl (10.000 cells/well) were added to the plate with the peptides and incubated for 4 hours at 37° C. in a humidified incubator. Following incubation, assay plates are equilibrated to room temperature, followed by addition of 25 μl of Bright-Glo™ Luciferase reagent, incubation at room temperature for 10 minutes and analysis of luminescence (Envision Reader). […] EC50 values were calculated by non-linear regression using sigmoid concentration-response with variable slope.
The same assays were run in the presence of 100% plasma with no additional buffer constituents.

Structure (SMILES)	solubility at 2 h [1] [µg/mL]	EC50 (hGIPR; hGIPR 0.5% hP (nM), 0.5% human plasma) [nM]	EC50 (hGIPR; hGIPR 100% hP (nM), 100% human plasma) [nM]	solubility ([1]; read-out: Solubility) [µg/mL]	solubility [1] [µg/mL]
CC[C@H](C)[C@H](NC(=O)[C@H](CC(C)C)NC(=O)[C@H](Cc1c[nH]cn1)NC(=O)[C@H](CCCNC(=N)N)NC(=O)[C@@H](NC(=O)[C@H](Cc1ccccc1)NC(=O)[C@H](C)NC(=O)C(C)(C)NC(=O)[C@H](CCC(N)=O)NC(=O)[C@H](C)NC(=O)[C@H](CCC(N)=O)NC(=O)[C@H](CCCCN)NC(=O)[C@H](CCC(=O)O)NC(=O)[C@H](CC(C)C)NC(=O)C(C)(C)NC(=O)[C@@H](NC(=O)[C@H](CO)NC(=O)[C@H](CC(C)C)NC(=O)[C@H](CC(=O)O)NC(=O)[C@H](CO)NC(=O)[C@@H](NC(=O)[C@H](Cc1ccccc1)NC(=O)[C@@H](NC(=O)CNC(=O)[C@H](CCC(=O)O)NC(=O)C(C)(C)NC(=O)[C@@H](N)Cc1ccc(O)cc1)[C@@H](C)O)[C@@H](C)O)[C@@H](C)CC)C(C)C)C(=O)N[C@@H](CC(N)=O)C(=O)N[C@@H](CCCCNC(=O)CCCCCNC(=O)CCCCCNC(=O)CC[C@H](NC(=O)CC[C@H](NC(=O)CC[C@H](NC(=O)CC[C@H](NC(=O)CC[C@H](NC(=O)CCCCCCCCCCCCCCCCCCC(=O)O)C(=O)O)C(=O)O)C(=O)O)C(=O)O)C(=O)O)C(=O)NC(C)(C)C(=O)N[C@H](C(=O)N[C@@H](CCCNC(=N)N)C(=O)N[C@@H](CCC(N)=O)C(=O)N[C@@H](CCCNC(=N)N)C(=O)N[C@@H](Cc1ccc(O)cc1)C(N)=O)[C@@H](C)O [Compound 1, Y-Aib-E-G-T-F-T-S-D-L-S-I-Aib-L-E-K-Q-A-Q-Aib-A-F-V-R-H-L-I-N-K(1,3)-Aib-T-R-Q-R-Y-NH2.C20DA-gGlu-gGlu-gGlu-gGlu-gGlu-AHX-AHX(1,2)]	9800	0.2	10.3	–	–
CC[C@H](C)[C@H](NC(=O)[C@H](CC(C)C)NC(=O)[C@H](Cc1c[nH]cn1)NC(=O)[C@H](CCCNC(=N)N)NC(=O)[C@@H](NC(=O)[C@H](Cc1ccccc1)NC(=O)[C@H](C)NC(=O)C(C)(C)NC(=O)[C@H](CCC(N)=O)NC(=O)[C@H](C)NC(=O)[C@H](CCC(N)=O)NC(=O)[C@H](CCCCN)NC(=O)[C@H](CCC(=O)O)NC(=O)[C@H](CC(C)C)NC(=O)C(C)(C)NC(=O)[C@@H](NC(=O)[C@H](CO)NC(=O)[C@H](Cc1ccc(O)cc1)NC(=O)[C@H](CC(=O)O)NC(=O)[C@H](CO)NC(=O)[C@@H](NC(=O)[C@H](Cc1ccccc1)NC(=O)[C@@H](NC(=O)CNC(=O)[C@H](CCC(=O)O)NC(=O)C(C)(C)NC(=O)[C@@H](N)Cc1ccc(O)cc1)[C@@H](C)O)[C@@H](C)O)[C@@H](C)CC)C(C)C)C(=O)N[C@@H](CC(N)=O)C(=O)N[C@@H](CCCCNC(=O)[C@@H](N)CCNC(=O)CC[C@H](NC(=O)CC[C@H](NC(=O)CC[C@H](NC(=O)CC[C@H](NC(=O)CC[C@H](NC(=O)CC[C@H](NC(=O)CCCCCCCCCCCCCCCCC(=O)O)C(=O)O)C(=O)O)C(=O)O)C(=O)O)C(=O)O)C(=O)O)C(=O)NC(C)(C)C(=O)N[C@H](C(=O)N[C@@H](CCCNC(=N)N)C(=O)N[C@@H](CCC(N)=O)C(=O)N[C@@H](CCCNC(=N)N)C(=O)N[C@@H](Cc1ccc(O)cc1)C(N)=O)[C@@H](C)O [Compound 120, Y-Aib-E-G-T-F-T-S-D-Y-S-I-Aib-L-E-K-Q-A-Q-Aib-A-F-V-R-H-L-I-N-K(1,3)-Aib-T-R-Q-R-Y-NH2.C18DA-gGlu-gGlu-gGlu-gGlu-gGlu-gGlu-gDab(1,2)]	–	–	–	4700	–
CC[C@H](C)[C@H](NC(=O)[C@H](C)NC(=O)[C@H](Cc1c[nH]cn1)NC(=O)[C@H](CCCNC(=N)N)NC(=O)[C@@H](NC(=O)[C@H](Cc1ccccc1)NC(=O)[C@H](C)NC(=O)C(C)(C)NC(=O)[C@H](CCC(N)=O)NC(=O)[C@H](C)NC(=O)[C@H](CCC(N)=O)NC(=O)[C@H](CCCCN)NC(=O)[C@H](CCC(=O)O)NC(=O)[C@H](CC(C)C)NC(=O)C(C)(C)NC(=O)[C@@H](NC(=O)[C@H](CO)NC(=O)[C@H](Cc1ccc(O)cc1)NC(=O)[C@H](CC(=O)O)NC(=O)[C@H](CO)NC(=O)[C@@H](NC(=O)[C@H](Cc1ccccc1)NC(=O)[C@@H](NC(=O)CNC(=O)[C@H](CCC(=O)O)NC(=O)C(C)(C)NC(=O)[C@@H](N)Cc1ccc(O)cc1)[C@@H](C)O)[C@@H](C)O)[C@@H](C)CC)C(C)C)C(=O)N[C@@H](CC(N)=O)C(=O)N[C@@H](CCCCNC(=O)[C@@H](N)CCCCNC(=O)CC[C@H](NC(=O)CC[C@H](NC(=O)CC[C@H](NC(=O)CC[C@H](NC(=O)CC[C@H](NC(=O)CC[C@H](NC(=O)CCCCCCCCCCCCCCCCC(=O)O)C(=O)O)C(=O)O)C(=O)O)C(=O)O)C(=O)O)C(=O)O)C(=O)NC(C)(C)C(=O)N[C@H](C(=O)N[C@@H](CCCNC(=N)N)C(=O)N[C@@H](CCC(N)=O)C(=O)N[C@@H](CCCNC(=N)N)C(=O)N[C@@H](Cc1ccc(O)cc1)C(N)=O)[C@@H](C)O [Compound 139, Y-Aib-E-G-T-F-T-S-D-Y-S-I-Aib-L-E-K-Q-A-Q-Aib-A-F-V-R-H-A-I-N-K(1,3)-Aib-T-R-Q-R-Y-NH2.C18DA-gGlu-gGlu-gGlu-gGlu-gGlu-gGlu-eLys(1,2)]	9000	–	–	–	–
CCCCCCCCCCCCCCCC(=O)NCC(=O)NCC(=O)NCC(=O)NCC(=O)NCCCC[C@H](NC(=O)[C@H](CC(=O)O)NC(=O)[C@H](CO)NC(=O)[C@@H](NC(=O)[C@](C)(Cc1ccccc1)NC(=O)[C@@H](NC(=O)CNC(=O)[C@H](CCC(=O)O)NC(=O)C(C)(C)NC(=O)[C@H](Cc1ccc(O)cc1)NC)[C@@H](C)O)[C@@H](C)O)C(=O)N[C@@H](CO)C(=O)N[C@H](C(=O)NC(C)(C)C(=O)N[C@@H](CC(C)C)C(=O)N[C@@H](CCC(=O)O)C(=O)N[C@@H](CCCCN)C(=O)N[C@@H](CCC(N)=O)C(=O)N[C@@H](CCCNC(=N)N)C(=O)N[C@@H](CCC(N)=O)C(=O)NC(C)(CC)C(=O)N[C@@H](CCC(=O)O)C(=O)N[C@@H](Cc1ccccc1)C(=O)N[C@H](C(=O)N[C@@H](CCCNC(=N)N)C(=O)N[C@@H](Cc1c[nH]cn1)C(=O)N[C@@H](CC(C)C)C(=O)N[C@@H](CC(C)C)C(=O)N[C@@H](CC(N)=O)C(=O)N[C@@H](CCCCN)C(=O)NC(C)(C)C(=O)N[C@H](C(=O)N[C@@H](CCCNC(=N)N)C(=O)N[C@@H](CCC(N)=O)C(=O)N[C@@H](CCCNC(=N)N)C(=O)N[C@@H](Cc1ccc(O)cc1)C(N)=O)[C@@H](C)O)C(C)C)[C@@H](C)CC (stereo partly drawn) [Ref. 1, NMeY-Aib-E-G-T-aMeF-T-S-D-K(1,3)-S-I-Aib-L-E-K-Q-R-Q-Iva-E-F-V-R-H-L-L-N-K-Aib-T-R-Q-R-Y-NH2.C16A-G-G-G-G(1,2), reference compound] (H-[NMeY][Aib]EGT[αMeF]TSDK([Gly-Gly-Gly-Gly-Palmitoyl])SI[Aib]LEKQRQ[ξIva]EFVRHLLNK[Aib]TRQRY-NH2)	< 1000	–	–	–	<1000
CC[C@H](C)[C@H](NC(=O)[C@H](CO)NC(=O)[C@H](CCCCNC(=O)CNC(=O)CNC(=O)CNC(=O)CNC(=O)CCCCCCCCCCCCCCCCC(=O)O)NC(=O)[C@H](CC(=O)O)NC(=O)[C@H](CO)NC(=O)[C@@H](NC(=O)[C@](C)(Cc1ccccc1)NC(=O)[C@@H](NC(=O)CNC(=O)[C@H](CCC(=O)O)NC(=O)C(C)(C)NC(=O)[C@@H](N)Cc1ccc(O)cc1)[C@@H](C)O)[C@@H](C)O)C(=O)NC(C)(C)C(=O)N[C@@H](CC(C)C)C(=O)N[C@@H](CCC(=O)O)C(=O)N[C@@H](CCCCN)C(=O)N[C@@H](CCC(N)=O)C(=O)N[C@@H](CCCNC(=N)N)C(=O)N[C@@H](CCC(N)=O)C(=O)NC(C)(CC)C(=O)N[C@@H](CCC(=O)O)C(=O)N[C@@H](Cc1ccccc1)C(=O)N[C@H](C(=O)N[C@@H](CCCNC(=N)N)C(=O)N[C@@H](Cc1c[nH]cn1)C(=O)N[C@@H](CC(C)C)C(=O)N[C@@H](CC(C)C)C(=O)N[C@@H](CC(N)=O)C(=O)N[C@@H](CCCCN)C(=O)NC(C)(C)C(=O)N[C@H](C(=O)N[C@@H](CCCNC(=N)N)C(=O)N[C@@H](CCC(N)=O)C(=O)N[C@@H](CCCNC(=N)N)C(=O)N[C@@H](Cc1ccc(O)cc1)C(N)=O)[C@@H](C)O)C(C)C (stereo partly drawn) [Ref. 3, Y-Aib-E-G-T-aMeF-T-S-D-K(1,3)-S-I-Aib-L-E-K-Q-R-Q-Iva-E-F-V-R-H-L-L-N-K-Aib-T-R-Q-R-Y-NH2.C18DA-G-G-G-G(1,2), reference compound] (H-Y[Aib]EGT[αMeF]TSDK([Gly-Gly-Gly-Gly-C18 diacid])SI[Aib]LEKQRQ[ξIva]EFVRHLLNK[Aib]TRQRY-NH2)	< 1000	–	–	–	<1000
